Data from patent US20050038093A1, “Treating diabetic retinopathy with angiotensin II receptor blockers” (Boehringer Ingelheim International GmbH, priority 2003, published 2005).

Assays:
PDGF-B mRNA = assay: Quantitative reverse transcription PCR of PDGF-B mRNA in cultured retinal pericytes; type: cell-based, bovine; details: 10^-7 M angiotensin II, 4 hours; for inhibition of angiotensin II induced up-regulation of PDGF mRNA levels: 10^-7 M telmisartan or 1 mM NAC
Experimental: To investigate the effects of angiotensin II on PDGF-B gene expression in cultured retinal pericytes, poly(A)^+ RNAs were isolated from cells treated with or without 10^−7 M angiotensin II in the presence or absence of 10^−7 M telmisartan or 1 mM NAC for 4 hours, and analyzed by RT-PCR as described in Yamagishi et al, Kidney Int 63:464, 2003. The amounts of poly(A)^+ RNA templates (about 30 ng) and cell cycle numbers for amplification (28 cycles for PDGF-B gene and 22 cycles for β-actin gene) were chosen in quantitative ranges were reactions proceeded linearly, which had been determined by plotting signal intensities as functions of the template amounts and cell cycle numbers as described in Yamagishi et al, J Biol Chem 277:20309, 2002. Sequences of primers for detecting bovine β-actin mRNAs were the same as described in Okamoto et al, FASEB J 16:1928, 2002.

VEGF mRNA = assay: Quantitative reverse transcription PCR of VEGF mRNA in pericytes; type: cell-based, bovine; details: 10^-7 M angiotensin II, 4 hours; for inhibition of angiotensin II-induced up-regulation of VEGF mRNA levels in pericytes: 10^-7 M telmisartan or 1 mM NAC
Experimental: Sequences and primers for detecting VEGF and β-actin mRNAs are described in Yamagishi et al, J Biol Chem 272:8723, 1997.
Poly(A)^+ RNAs were isolated from cells treated with or without 10^−7 M angiotensin II in the presence or absence of 10^−7 M telmisartan or 1 mM NAC for 4 hours, and analyzed by quantitative reverse transcription PCR (RT-PCR) as described in Yamagishi et al, Diabetologia 41:1435, 1998. The amounts of poly(A)^+ RNA templates (about 30 ng) and cell cycle numbers for amplification (28 cycles for VEGF gene and 22 cycles for β-actin gene) were chosen in quantitative ranges were reactions proceeded linearly, which had been determined by plotting signal intensities as functions of the template amounts and cell cycle numbers as described in Yamagishi et al, J Biol Chem 277:20309, 2002.
It has been reported that there exist five alternatively spliced products from the single VEGF gene. They are designated as VEGF121, VEGF145, VEGF165 VEGF189, and VEGF206. Since Northern blot analysis can not clearly discriminate these five mRNA products, we employed a more sensitive semi-quantitative RT-PCR technique as described in Okamoto et al, FASEB J 16:1928, 2002. In these experiments, cDNA products of 486 and 618 base pairs length are amplified from mRNAs for VEGF121 and VEGF165, respectively. […] The VEGF mRNA level was about 1.5 fold higher than the basal level when exposed to 10^−7 M angiotensin II.

[1] = system: pericytes isolated from bovine retina; assay: Measurement of reactive oxygen species in pericytes; type: cell-based; details: for inhibition of angiotensin II-induced increase in the generation of reactive oxygen species in pericytes: 10^-7 M telmisartan, 10^-7 or 10^-6 M angiotensin II
Experimental: (§1) Pericytes were isolated from bovine retina and maintained in Dulbecco's Eagle's medium supplemented with 20% of fetal bovine serum (FBS) as described in Yamagishi et al, Circulation 87:1969, 1993.
Angiotensin II treatment was carried out in medium containing 2% FBS. Pericytes were treated with or without 10^−7 or 10^−6 M angiotensin II in the presence or absence of 10^−7 M telmisartan for 24 hours. Then the intracellular formation of reactive oxygen species was detected as described in Yamagishi et al, A J Biol Chem 276:25096, 2001 by using the fluorescent probe CM-H2DCFDA (Molecular Probes Inc, Eugene, Oreg.).

pericytes = assay: Measurement of [3H]thymidine incorporation in pericytes; type: cell-based, bovine; details: 10^-7 M angiotensin, 24 hours
Experimental: as §1
Pericytes were treated with or without 10^−7 M angiotensin in the presence or absence of 1 mM N-acetylcystein (NAC) for 24 hours, and then [^3H]thymidine incorporation in cells was determined as described in Yamagishi et al, FEBS Lett 384:103, 1996.

[2] = IDNT study (Lewis et al, 2001); cited from earlier work
[3] = EUCLID study, cited from earlier work

Compound: CC(=O)N[C@@H](CS)C(=O)O [NAC, N-acetylcystein]
- inhibition of angiotensin II induced up-regulation of PDGF mRNA levels (PDGF-B mRNA): significantly inhibit
- inhibition of angiotensin II-induced up-regulation of VEGF mRNA levels in pericytes (VEGF mRNA): completely inhibit
- reversal of angiotensin II-induced increase in generation of reactive oxygen species by antioxidant ([1]; added during treatment of pericytes with angiotensin II): reverses the increase
- prevention of angiotensin II-induced decrease in DNA synthesis in pericytes (pericytes; 1 mM NAC): significantly prevented

Compound: CCCCC1=NC2(CCCC2)C(=O)N1Cc1ccc(-c2ccccc2-c2nnn[nH]2)cc1 [irbesartan]
- protection against the progression of nephropathy due to type II diabetes [2]: effective

Compound: NCCCC[C@H](N[C@@H](CCc1ccccc1)C(=O)O)C(=O)N1CCC[C@H]1C(=O)O [lisinopril]
- risk of progression to proliferative retinopathy [3]: significantly reduced
- reduction of the risk of progression of retinopathy ([3]; retinopathy not a primary endpoint): approximately 50%

Compound: CCCc1nc2c(C)cc(-c3nc4ccccc4n3C)cc2n1Cc1ccc(-c2ccccc2C(=O)O)cc1 [telmisartan]
- inhibition of angiotensin II induced up-regulation of PDGF mRNA levels (PDGF-B mRNA): significantly inhibit
- inhibition of angiotensin II-induced up-regulation of VEGF mRNA levels in pericytes (VEGF mRNA): completely inhibit
- effect of compound alone on generation of reactive oxygen species ([1]; 10^-7 M telmisartan without angiotensin II, 24 hours): did not affect
- inhibition of angiotensin II-induced increase in the generation of reactive oxygen species in pericytes ([1]; 24 hours): inhibit
- inhibition of angiotensin II-induced increase in the generation of reactive oxygen species in pericytes ([1]; 24 hours, listed as Telmisartan): completely inhibit

Compound: angiotensin II (DRVYIHPF; Angiotensin-2; UniProt P01019 25-32, looked up) [stimulus used on pericytes]
- PDGF-B mRNA level relative to basal level (PDGF-B mRNA): about 5 fold
- VEGF mRNA level relative to basal level (VEGF mRNA): about 1.5 fold
- increase of intracellular generation of reactive oxygen species ([1]; 10^-6 M angiotensin II, 24 hours, medium with 2% FBS): about 1.3 fold
- effect on DNA synthesis in pericytes ([3H]thymidine incorporation) (pericytes): significantly inhibited
